Source: ChEMBL document CHEMBL1687721, “New drugs against tuberculosis: problems, progress, and evaluation of agents in clinical development” (Antimicrob Agents Chemother, 2009)
Converted amounts (≈) assume the structure as drawn.

Tests used:
[1] = tested on: Mycobacterium tuberculosis; test: microbe, parasite or virus in culture
Description: Antimicrobial activity against Mycobacterium tuberculosis

clinical [2] = conditions: human, in vivo, po, 10 mg/kg
[3] = Plasma protein binding in healthy human at 10 mg/kg, po; type: ADME, organism-based; design: dose 10 mg/kg, route oral; conditions: read-out: PPB (converted)
[4] = AUC in healthy human at 10 mg/kg, po; type: ADME, organism-based; design: dose 10 mg/kg, route oral; conditions: plasma
[5] = Tmax in healthy human at 10 mg/kg, po; type: ADME, organism-based; design: dose 10 mg/kg, route oral; conditions: in vivo
[6] = Oral bioavailability in healthy human at 10 mg/kg, po; type: ADME, organism-based; conditions: in vivo
Mycobacterium avium = test: Antimicrobial activity against Mycobacterium avium; type: functional
[7] = Oral bioavailability in healthy human at 400 mg/kg, po; type: ADME, organism-based; conditions: in vivo
clinical [8] = conditions: human, plasma, po, 400 mg/kg
Description: Plasma protein binding in healthy human at 400 mg/kg, po

[9] = Renal excretion in healthy human at 400 mg/kg, po administered as single dose; type: ADME, organism-based, Kidney; design: dose 400 mg/kg, route oral; conditions: urine, read-out: Activity
clinical [10] = conditions: human, in vivo, po, 400 mg/kg
Description: Tmax in patients with pulmonary tuberculosis at 400 mg/kg, po

[11] = tested on: Mycobacterium tuberculosis; type: functional
[12] = Drug excretion in feces of healthy human at 800 mg/kg; type: ADME, organism-based; design: dose 800 mg/kg; conditions: faeces, read-out: Activity
[13] = Drug excretion in urine of healthy human at 800 mg/kg; type: ADME, organism-based; design: dose 800 mg/kg; conditions: read-out: Activity
[14] = tested on: Mycobacterium tuberculosis; test: microbe, parasite or virus in culture; remark: listed apart in the source
Description: Antimicrobial activity against rifampicin-sensitive Mycobacterium tuberculosis

[15] = AUC in healthy human at 400 mg/kg, po; type: ADME, organism-based; design: dose 400 mg/kg, route oral; conditions: plasma
[16] = tested on: Mycobacterium tuberculosis; test: Antimicrobial activity against compound-susceptible Mycobacterium tuberculosis; type: functional
[17] = Plasma protein binding in human at 0.1 to 2.5 ug/ml by ultracentrifugation; type: ADME, cell-free; conditions: read-out: PPB (converted)
[18] = Plasma protein binding in Beagle dog at 0.1 to 2.5 ug/ml by ultracentrifugation; type: ADME, cell-free, Canis lupus familiaris; conditions: read-out: PPB (converted)
[19] = Plasma protein binding in Fischer rat at 0.1 to 2.5 ug/ml by ultracentrifugation; type: ADME, cell-free; conditions: read-out: PPB (converted)
[20] = Plasma protein binding in CD2F1 mouse at 0.1 to 2.5 ug/ml by ultracentrifugation; type: ADME, cell-free; conditions: read-out: PPB (converted)
[21] = Half life in healthy human; type: ADME, organism-based; conditions: in vivo
[22] = Tmax in healthy human; type: ADME, organism-based; conditions: in vivo
[23] = Drug excretion in urine of healthy human; type: ADME, tissue-based; conditions: read-out: Activity
[24] = Drug excretion in feces of healthy human; type: ADME; conditions: faeces, read-out: Activity
[25] = Tmax in human; type: ADME, organism-based; conditions: in vivo
[26] = Half life in human; type: ADME, organism-based; conditions: in vivo
[27] = Plasma protein binding in healthy human at 600 mg/kg, po; type: ADME, organism-based; design: dose 600 mg/kg, route oral; conditions: read-out: PPB (converted)
[28] = Cmax in healthy human at 600 mg/kg, po; type: ADME, organism-based; design: dose 600 mg/kg, route oral; conditions: in vivo
[29] = Tmax in healthy human at 600 mg/kg, po; type: ADME, organism-based; design: dose 600 mg/kg, route oral; conditions: in vivo
[30] = AUC in healthy human at 600 mg/kg, po; type: ADME, organism-based; design: dose 600 mg/kg, route oral; conditions: plasma
[31] = Half life in healthy human at 600 mg/kg, po; type: ADME, organism-based; design: dose 600 mg/kg, route oral; conditions: in vivo
[32] = Ratio of AUC to MIC against Mycobacterium avium; type: functional

## CO[C@H]1/C=C/O[C@@]2(C)Oc3c(C)c(O)c4c(O)c(c(/C=N/N5CCN(C)CC5)c(O)c4c3C2=O)NC(=O)/C(C)=C\C=C\[C@H](C)[C@H](O)[C@@H](C)[C@@H](O)[C@@H](C)[C@H](OC(C)=O)[C@@H]1C [RIFAMPIN]
[1]
  MIC: 0.15 µg/mL (≈ 0.182 µM)
Clinical [2]
  Cmax: 8000 ng/mL
[3]
  fraction unbound: 0.15
[4]
  AUC: 21500 ng·h/mL
[5]
  Tmax: 1.5 h
[6]
  bioavailability: 68%
Mycobacterium avium
  MIC: 0.15 µg/mL (≈ 0.182 µM)

## COc1c(N2CCNC(C)C2)c(F)cc2c(=O)c(C(=O)O)cn(C3CC3)c12 (stereo unspecified) [GATIFLOXACIN]
[7]
  bioavailability: 96%
Clinical [8]
  fraction unbound: 0.8
[9]
  dose excreted: 77%
Clinical [10]
  Tmax: 1.5 h

## COc1c(N2C[C@@H]3CCCN[C@@H]3C2)c(F)cc2c(=O)c(C(=O)O)cn(C3CC3)c12 [MOXIFLOXACIN]
[11]
  Activity: 37%
[12]
  dose excreted: 25%
[13]
  dose excreted: 20%
[7]
  bioavailability: 86%
Clinical [10]
  Tmax: 1 h
[14]
  MIC: 0.25 µg/mL (≈ 0.623 µM)
[15]
  AUC: 26900 ng·h/mL

## CC(C)=CCC/C(C)=C/CNCCNC1C2CC3CC(C2)CC1C3 (stereo unspecified) [SQ109]
[16]
  MIC: 0.16 µg/mL (≈ 0.484 µM)
[17]
  fraction unbound: 0.94
[18]
  fraction unbound: 0.94
[19]
  fraction unbound: 0.94
[20]
  fraction unbound: 0.94

## O=[N+]([O-])c1cn2c(n1)OC[C@@H](OCc1ccc(OC(F)(F)F)cc1)C2 [PRETOMANID]
[16]
  MIC: 0.015 µg/mL (≈ 0.0418 µM)
[21]
  half-life: 18 h
[22]
  Tmax: 4 h
[23]
  dose excreted: 65%
[24]
  dose excreted: 26%

## CC[C@@H](CO)NCCN[C@@H](CC)CO [ETHAMBUTOL]
[11]
  Activity: 26%

## COc1nc2ccc(Br)cc2cc1[C@@H](c1ccccc1)[C@@](O)(CCN(C)C)c1cccc2ccccc12 [BEDAQUILINE]
[16]
  MIC: 0.03 µg/mL (≈ 0.054 µM)
[25]
  Tmax: 5 h
[26]
  half-life: 24 h

## CO[C@H]1/C=C/O[C@@]2(C)Oc3c(C)c(O)c4c(O)c(c(/C=N/N5CCN(C6CCCC6)CC5)c(O)c4c3C2=O)NC(=O)/C(C)=C\C=C\[C@H](C)[C@H](O)[C@@H](C)[C@@H](O)[C@@H](C)[C@H](OC(C)=O)[C@@H]1C [RIFAPENTINE]
[27]
  fraction unbound: 0.03
[28]
  Cmax: 10000 ng/mL
[29]
  Tmax: 4.8 h
[14]
  MIC: 0.02 µg/mL (≈ 0.0228 µM)
[30]
  AUC: 319000 ng·h/mL
[31]
  half-life: 13 h
[32]
  RatioAUC/MIC: 76.6

## C[C@]1(COc2ccc(N3CCC(Oc4ccc(OC(F)(F)F)cc4)CC3)cc2)Cn2cc([N+](=O)[O-])nc2O1
[16]
  MIC: 0.006 µg/mL (≈ 0.0112 µM)

## Cc1c(CN2CCN(c3ccc(C(F)(F)F)cc3)CC2)cc(-c2ccccc2)n1NC(=O)c1ccncc1
[1]
  MIC90: 0.25 µg/mL (≈ 0.481 µM)
